# Data from patent US12194124B2, “Personal care compositions for treating odor causing bacteria and methods for the same” (Colgate-Palmolive Company, priority 2019, dated 2025).
# Tested on: S. Haemolyticus
# Experiment: Growth inhibition assay in 96-well plate, optical density of S. Haemolyticus
# Assay type: cell-based, Staphylococcus haemolyticus
# Description: The efficacy of 2-butyl octanol for selectively promoting, inhibiting, reducing, and/or treating bacterial growth was evaluated. Particularly, the efficacy of 2-butyl octanol for selectively promoting, inhibiting, reducing, and/or treating bacterial growth of Corynebacterium and Staphylococcus was evaluated. To evaluate the efficacy, an active solution was prepared by emulsifying 2-butyl octanol with a nonionic surfactant, namely, Polysorbate 80. The active solution included the 2-butyl octanol and the Polysorbate 80 in a ratio of about 83:17. Both positive controls (including no active solution) and negative controls (including no bacteria) were also prepared.
# A 96-well plate was utilized to evaluate the growth of the respective bacteria at varying dilutions. Each of the wells of a 96-well plate was aseptically filled with about 100 μL of Tryptic Soy Broth (TSB). In the first well of each row, about 100 μL of either the active solution (including the 2-butyl octanol and Polysorbate 80) or the desired solvent for the respective positive and negative controls was added to thereby provide a total of about 200 μL in the first well of the each respective row. A multi-channel pipette was then utilized to prepare a two-fold dilution in each column. Specifically, a multi-channel pipette set to about 100 μL was utilized to mix and transfer about 100 μL of the 200 μL from the wells of the first column to the respective wells of a subsequent column. This was repeated for each of the remaining eleven columns. About 100 μL of the twelfth column was removed, thereby leaving about 100 μL in each of the 96 wells. […] Specifically, a phosphate buffered saline (PBS) was utilized for the negative control. About 100 μL of the respective bacteria adjusted to 0.1 optical density (OD) bacteria was added to all other wells. The well plate was then incubated overnight at about 37° C. in a growth inhibition assay machine. Measurements were taken at about one hour increments.
compound,measurement,setting,value
"CCCCCCC(CO)CCCC (stereo not shown) [2-butyl octanol, 2-butyl-1-octanol]",Measured Optical Density of S. Haemolyticus,"0.02% 2-Butyl Octanol, 1 Hour",0.017
same,Measured Optical Density of S. Haemolyticus,"0.02% 2-Butyl Octanol, 2 Hour",0.129
same,Measured Optical Density of S. Haemolyticus,"0.02% 2-Butyl Octanol, 3 Hour",0.203
same,Measured Optical Density of S. Haemolyticus,"0.02% 2-Butyl Octanol, 4 Hour",0.218
same,Measured Optical Density of S. Haemolyticus,"0.02% 2-Butyl Octanol, 5 Hour",0.272
same,Measured Optical Density of S. Haemolyticus,"0.02% 2-Butyl Octanol, 6 Hour",0.34
same,Measured Optical Density of S. Haemolyticus,"0.02% 2-Butyl Octanol, 7 Hour",0.426
same,Measured Optical Density of S. Haemolyticus,"0.02% 2-Butyl Octanol, 8 Hour",0.503
same,Measured Optical Density of S. Haemolyticus,"0.02% 2-Butyl Octanol, 9 Hour",0.558
same,Measured Optical Density of S. Haemolyticus,"0.02% 2-Butyl Octanol, 10 Hour",0.616
same,Measured Optical Density of S. Haemolyticus,"0.02% 2-Butyl Octanol, 11 Hour",0.649
same,Measured Optical Density of S. Haemolyticus,"0.02% 2-Butyl Octanol, 12 Hour",0.671
same,Measured Optical Density of S. Haemolyticus,"0.02% 2-Butyl Octanol, 13 Hour",0.702
same,Measured Optical Density of S. Haemolyticus,"0.02% 2-Butyl Octanol, 14 Hour",0.719
same,Measured Optical Density of S. Haemolyticus,"0.02% 2-Butyl Octanol, 15 Hour",0.724
same,Measured Optical Density of S. Haemolyticus,"0.02% 2-Butyl Octanol, 16 Hour",0.735
same,Measured Optical Density of S. Haemolyticus,"0.02% 2-Butyl Octanol, 17 Hour",0.748
same,Measured Optical Density of S. Haemolyticus,"0.02% 2-Butyl Octanol, 18 Hour",0.751
same,Measured Optical Density of S. Haemolyticus,"0.04% 2-Butyl Octanol, 1 Hour",0.026
same,Measured Optical Density of S. Haemolyticus,"0.04% 2-Butyl Octanol, 2 Hour",0.153
same,Measured Optical Density of S. Haemolyticus,"0.04% 2-Butyl Octanol, 3 Hour",0.237
same,Measured Optical Density of S. Haemolyticus,"0.04% 2-Butyl Octanol, 4 Hour",0.247
same,Measured Optical Density of S. Haemolyticus,"0.04% 2-Butyl Octanol, 5 Hour",0.286
same,Measured Optical Density of S. Haemolyticus,"0.04% 2-Butyl Octanol, 6 Hour",0.328
same,Measured Optical Density of S. Haemolyticus,"0.04% 2-Butyl Octanol, 7 Hour",0.389
same,Measured Optical Density of S. Haemolyticus,"0.04% 2-Butyl Octanol, 8 Hour",0.453
same,Measured Optical Density of S. Haemolyticus,"0.04% 2-Butyl Octanol, 9 Hour",0.514
same,Measured Optical Density of S. Haemolyticus,"0.04% 2-Butyl Octanol, 10 Hour",0.56
same,Measured Optical Density of S. Haemolyticus,"0.04% 2-Butyl Octanol, 11 Hour",0.596
same,Measured Optical Density of S. Haemolyticus,"0.04% 2-Butyl Octanol, 12 Hour",0.619
same,Measured Optical Density of S. Haemolyticus,"0.04% 2-Butyl Octanol, 13 Hour",0.624
same,Measured Optical Density of S. Haemolyticus,"0.04% 2-Butyl Octanol, 14 Hour",0.635
same,Measured Optical Density of S. Haemolyticus,"0.04% 2-Butyl Octanol, 15 Hour",0.656
same,Measured Optical Density of S. Haemolyticus,"0.04% 2-Butyl Octanol, 16 Hour",0.657
same,Measured Optical Density of S. Haemolyticus,"0.04% 2-Butyl Octanol, 17 Hour",0.671
same,Measured Optical Density of S. Haemolyticus,"0.04% 2-Butyl Octanol, 18 Hour",0.676
same,Measured Optical Density of S. Haemolyticus,"0.08% 2-Butyl Octanol, 1 Hour",0.039
same,Measured Optical Density of S. Haemolyticus,"0.08% 2-Butyl Octanol, 2 Hour",0.205
same,Measured Optical Density of S. Haemolyticus,"0.08% 2-Butyl Octanol, 3 Hour",0.308
same,Measured Optical Density of S. Haemolyticus,"0.08% 2-Butyl Octanol, 4 Hour",0.317
same,Measured Optical Density of S. Haemolyticus,"0.08% 2-Butyl Octanol, 5 Hour",0.355
same,Measured Optical Density of S. Haemolyticus,"0.08% 2-Butyl Octanol, 6 Hour",0.401
same,Measured Optical Density of S. Haemolyticus,"0.08% 2-Butyl Octanol, 7 Hour",0.462
same,Measured Optical Density of S. Haemolyticus,"0.08% 2-Butyl Octanol, 8 Hour",0.53
same,Measured Optical Density of S. Haemolyticus,"0.08% 2-Butyl Octanol, 9 Hour",0.58
same,Measured Optical Density of S. Haemolyticus,"0.08% 2-Butyl Octanol, 10 Hour",0.614
same,Measured Optical Density of S. Haemolyticus,"0.08% 2-Butyl Octanol, 11 Hour",0.637
same,Measured Optical Density of S. Haemolyticus,"0.08% 2-Butyl Octanol, 12 Hour",0.647
same,Measured Optical Density of S. Haemolyticus,"0.08% 2-Butyl Octanol, 13 Hour",0.673
same,Measured Optical Density of S. Haemolyticus,"0.08% 2-Butyl Octanol, 14 Hour",0.683
same,Measured Optical Density of S. Haemolyticus,"0.08% 2-Butyl Octanol, 15 Hour",0.693
same,Measured Optical Density of S. Haemolyticus,"0.08% 2-Butyl Octanol, 16 Hour",0.708
same,Measured Optical Density of S. Haemolyticus,"0.08% 2-Butyl Octanol, 17 Hour",0.733
same,Measured Optical Density of S. Haemolyticus,"0.08% 2-Butyl Octanol, 18 Hour",0.744
same,Measured Optical Density of S. Haemolyticus,"0.16% 2-Butyl Octanol, 1 Hour",0.049
same,Measured Optical Density of S. Haemolyticus,"0.16% 2-Butyl Octanol, 2 Hour",0.175
same,Measured Optical Density of S. Haemolyticus,"0.16% 2-Butyl Octanol, 3 Hour",0.26
same,Measured Optical Density of S. Haemolyticus,"0.16% 2-Butyl Octanol, 4 Hour",0.285
same,Measured Optical Density of S. Haemolyticus,"0.16% 2-Butyl Octanol, 5 Hour",0.326
same,Measured Optical Density of S. Haemolyticus,"0.16% 2-Butyl Octanol, 6 Hour",0.39
same,Measured Optical Density of S. Haemolyticus,"0.16% 2-Butyl Octanol, 7 Hour",0.464
same,Measured Optical Density of S. Haemolyticus,"0.16% 2-Butyl Octanol, 8 Hour",0.524
same,Measured Optical Density of S. Haemolyticus,"0.16% 2-Butyl Octanol, 9 Hour",0.579
same,Measured Optical Density of S. Haemolyticus,"0.16% 2-Butyl Octanol, 10 Hour",0.627
same,Measured Optical Density of S. Haemolyticus,"0.16% 2-Butyl Octanol, 11 Hour",0.66
same,Measured Optical Density of S. Haemolyticus,"0.16% 2-Butyl Octanol, 12 Hour",0.684
same,Measured Optical Density of S. Haemolyticus,"0.16% 2-Butyl Octanol, 13 Hour",0.71
same,Measured Optical Density of S. Haemolyticus,"0.16% 2-Butyl Octanol, 14 Hour",0.719
same,Measured Optical Density of S. Haemolyticus,"0.16% 2-Butyl Octanol, 15 Hour",0.724
same,Measured Optical Density of S. Haemolyticus,"0.16% 2-Butyl Octanol, 16 Hour",0.74
same,Measured Optical Density of S. Haemolyticus,"0.16% 2-Butyl Octanol, 17 Hour",0.756
same,Measured Optical Density of S. Haemolyticus,"0.16% 2-Butyl Octanol, 18 Hour",0.77
same,growth of S. hominis,2-butyl octanol about 0.02 weight % to about 5.2 weight %,did not inhibit the growth of and/or promoted the growth of
same,Measured Optical Density of S. Haemolyticus,"5.2% 2-Butyl Octanol, 1 Hour",0.198
same,Measured Optical Density of S. Haemolyticus,"5.2% 2-Butyl Octanol, 2 Hour",0.254
same,Measured Optical Density of S. Haemolyticus,"5.2% 2-Butyl Octanol, 3 Hour",0.345
same,Measured Optical Density of S. Haemolyticus,"5.2% 2-Butyl Octanol, 4 Hour",0.383
same,Measured Optical Density of S. Haemolyticus,"5.2% 2-Butyl Octanol, 5 Hour",0.396
same,Measured Optical Density of S. Haemolyticus,"5.2% 2-Butyl Octanol, 6 Hour",0.384
same,Measured Optical Density of S. Haemolyticus,"5.2% 2-Butyl Octanol, 7 Hour",0.403
same,Measured Optical Density of S. Haemolyticus,"5.2% 2-Butyl Octanol, 8 Hour",0.477
same,Measured Optical Density of S. Haemolyticus,"5.2% 2-Butyl Octanol, 9 Hour",0.549
same,Measured Optical Density of S. Haemolyticus,"5.2% 2-Butyl Octanol, 10 Hour",0.603
same,Measured Optical Density of S. Haemolyticus,"5.2% 2-Butyl Octanol, 11 Hour",0.622
same,Measured Optical Density of S. Haemolyticus,"5.2% 2-Butyl Octanol, 12 Hour",0.639
same,Measured Optical Density of S. Haemolyticus,"5.2% 2-Butyl Octanol, 13 Hour",0.654
same,Measured Optical Density of S. Haemolyticus,"5.2% 2-Butyl Octanol, 14 Hour",0.681
same,Measured Optical Density of S. Haemolyticus,"5.2% 2-Butyl Octanol, 15 Hour",0.699
same,Measured Optical Density of S. Haemolyticus,"5.2% 2-Butyl Octanol, 16 Hour",0.722
same,Measured Optical Density of S. Haemolyticus,"5.2% 2-Butyl Octanol, 17 Hour",0.742
same,Measured Optical Density of S. Haemolyticus,"5.2% 2-Butyl Octanol, 18 Hour",0.752
